In general, IC50 refers to the concentration at which inhibition is half-maximal. Lower therefore signals higher potency.

These results are taken from patent US11820766B2, “Monoacylglycerol lipase modulators” (Janssen Pharmaceutica NV, priority 2018, dated 2023).

The test concerns the target T1, human MGL from HeLa cells (Homo sapiens, UniProt Q99685).
T1 construct: combining endogenously expressed MGL from HeLa cells with test compounds; endogenous in cells; host or cells: HeLa cells / cell homogenates
T1 sequence (Q99685 1-303): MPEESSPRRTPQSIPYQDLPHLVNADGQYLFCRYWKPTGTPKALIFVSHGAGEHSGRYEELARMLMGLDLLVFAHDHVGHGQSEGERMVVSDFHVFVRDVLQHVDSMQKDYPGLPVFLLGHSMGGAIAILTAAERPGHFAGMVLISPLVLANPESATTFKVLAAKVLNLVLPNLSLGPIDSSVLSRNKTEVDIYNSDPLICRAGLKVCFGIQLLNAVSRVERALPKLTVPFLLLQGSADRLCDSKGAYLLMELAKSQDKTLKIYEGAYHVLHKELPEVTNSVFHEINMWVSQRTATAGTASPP
The test can be described thus: In vitro MGL activity assay: [glycerol-1,3-3H]-oleyl glycerol cleavage by MGL from HeLa cells. The format is biochemical. The conditions noted are these: 300 nM [Glycerol-1,3-3H]-oleyl glycerol, one hour. The source says:
MGL is the predominant hydrolase in HeLa cells/cell homogenates.
In the case of `Cc1nn(C)cc1C(=O)N1CCc2c(nn(C)c2-c2cc(F)c(F)c(F)c2)[C@@H]1C` [Example 343, (1,3-Dimethylpyrazol-4-yl)-[(7S)-2,7-dimethyl-3-(3,4,5-trifluorophenyl)-5,7-dihydro-4H-pyrazolo[3,4-c]pyridin-6-yl]methanone], the IC50 amounted to 0.308 µM. As to `Cc1nn(C)c(C)c1C(=O)N1CCc2c(nn(C)c2-c2cc(F)c(F)c(F)c2)[C@@H]1C` [Example 344, [(7S)-2,7-Dimethyl-3-(3,4,5-trifluorophenyl)-5,7-dihydro-4H-pyrazolo[3,4-c]pyridin-6-yl]-(1,3,5-trimethylpyrazol-4-yl)methanone], 0.0581 µM corresponded to half-maximal inhibition (IC50).

Compound `Cc1c(C(=O)N2CCc3c(nn(C)c3-c3cc(F)c(F)c(F)c3)[C@@H]2C)cnn1C` [Example 345, (1,5-Dimethylpyrazol-4-yl)-[(7S)-2,7-dimethyl-3-(3,4,5-trifluorophenyl)-5,7-dihydro-4H-pyrazolo[3,4-c]pyridin-6-yl]methanone] had an IC50 of 0.0528 µM. In turn, `C[C@H]1c2nn(C)c(-c3cc(F)c(F)c(F)c3)c2CCN1C(=O)c1cnn(C2CC2)c1C(F)(F)F` [Example 346, [1-Cyclopropyl-5-(trifluoromethyl)pyrazol-4-yl]-[(7S)-2,7-dimethyl-3-(3,4,5-trifluorophenyl)-5,7-dihydro-4H-pyrazolo[3,4-c]pyridin-6-yl]methanone] registered an IC50 of 0.0224 µM. In turn, `C[C@H]1c2nn(C)c(-c3cc(F)c(F)c(F)c3)c2CCN1C(=O)c1cn(C)nc1C1(C)CC1` [Example 347, [(7S)-2,7-Dimethyl-3-(3,4,5-trifluorophenyl)-5,7-dihydro-4H-pyrazolo[3,4-c]pyridin-6-yl]-[1-methyl-3-(1-methylcyclopropyl)pyrazol-4-yl]methanone] had an IC50 of 2.49 µM.

The compound `C[C@H]1c2nn(C)c(-c3cc(F)c(F)c(F)c3)c2CCN1C(=O)c1cn(C)nc1C1(F)CC1` [Example 348, [(7S)-2,7-Dimethyl-3-(3,4,5-trifluorophenyl)-5,7-dihydro-4H-pyrazolo[3,4-c]pyridin-6-yl]-[3-(1-fluorocyclopropyl)-1-methyl-pyrazol-4-yl]methanone] displayed an IC50 of 0.848 µM. Consider `C[C@@H]1c2nn(-c3ccccc3)c(-c3ccccc3)c2CCN1C(=O)c1cnn(C)c1C1CC1` [Example 349, (R)-(5-cyclopropyl-1-methyl-1H-pyrazol-4-yl) (7-methyl-2,3-diphenyl-2,4,5,7-tetrahydro-6H-pyrazolo[3,4-c]pyridin-6-yl) methanone], for which the IC50 came out at 1.08 µM. Compound `C[C@H]1c2nn(-c3ccccc3)c(-c3ccccc3)c2CCN1C(=O)c1cnn(C)c1C1CC1` [Example 350, (S)-(5-cyclopropyl-1-methyl-1H-pyrazol-4-yl) (7-methyl-2,3-diphenyl-2,4,5,7-tetrahydro-6H-pyrazolo[3,4-c]pyridin-6-yl)methanone] had an IC50 of 0.0276 µM. Regarding `Cc1c(C(=O)N2CCc3c(nn(C)c3-c3cc(F)c(F)c(F)c3)[C@@H]2C)ccn1C` [Example 351, (1,2-Dimethylpyrrol-3-yl)-[(7S)-2,7-dimethyl-3-(3,4,5-trifluorophenyl)-5,7-dihydro-4H-pyrazolo[3,4-c]pyridin-6-yl]methanone], the IC50 worked out at 0.0089 µM. Compound `Cc1onc(C(=O)N2CCc3c(nn(C)c3-c3cc(F)c(F)c(F)c3)[C@@H]2C)c1C` [Example 352, (4,5-Dimethylisoxazol-3-yl)-[(7S)-2,7-dimethyl-3-(3,4,5-trifluorophenyl)-5,7-dihydro-4H-pyrazolo[3,4-c]pyridin-6-yl]methanone] came in with an IC50 of 0.0305 µM. For the compound `C[C@H]1c2nn(C)c(-c3cc(F)c(F)c(F)c3)c2CCN1C(=O)c1cc2[nH]ccc2cc1F` [Example 353, [(7S)-2,7-Dimethyl-3-(3,4,5-trifluorophenyl)-5,7-dihydro-4H-pyrazolo[3,4-c]pyridin-6-yl]-(5-fluoro-1H-indol-6-yl)methanone], the IC50 turned out to be 0.0485 µM. Under `C[C@H]1c2nn(C)c(-c3cc(F)c(F)c(F)c3)c2CCN1C(=O)c1ccc(F)c2[nH]ccc12` [Example 354, [(7S)-2,7-Dimethyl-3-(3,4,5-trifluorophenyl)-5,7-dihydro-4H-pyrazolo[3,4-c]pyridin-6-yl]-(7-fluoro-1H-indol-4-yl)methanone] stands 0.00223 µM. The compound `C[C@H]1c2nn(C)c(-c3cc(F)c(F)c(F)c3)c2CCN1C(=O)c1c[nH]c2ccc(F)cc12` [Example 355, [(7S)-2,7-Dimethyl-3-(3,4,5-trifluorophenyl)-5,7-dihydro-4H-pyrazolo[3,4-c]pyridin-6-yl]-(5-fluoro-1H-indol-3-yl)methanone] showed an IC50 of 0.0228 µM. As to `C[C@H]1c2nn(C)c(-c3cc(F)c(F)c(F)c3)c2CCN1C(=O)c1cn(C)c2ccc(F)cc12` [Example 356, [(7S)-2,7-Dimethyl-3-(3,4,5-trifluorophenyl)-5,7-dihydro-4H-pyrazolo[3,4-c]pyridin-6-yl]-(5-fluoro-1-methyl-indol-3-yl)methanone], the half-maximal inhibitory concentration (IC50) was 0.0186 µM. In turn, `C[C@H]1c2nn(C)c(-c3cc(F)c(F)c(F)c3)c2CCN1C(=O)c1c[nH]c2cccc(F)c12` [Example 357, [(7S)-2,7-Dimethyl-3-(3,4,5-trifluorophenyl)-5,7-dihydro-4H-pyrazolo[3,4-c]pyridin-6-yl]-(4-fluoro-1H-indol-3-yl)methanone] registered an IC50 of 0.00888 µM. In the case of `C[C@H]1c2nn(C)c(-c3cc(F)c(F)c(F)c3)c2CCN1C(=O)c1c[nH]c2cc(F)ccc12` [Example 358, [(7S)-2,7-Dimethyl-3-(3,4,5-trifluorophenyl)-5,7-dihydro-4H-pyrazolo[3,4-c]pyridin-6-yl]-(6-fluoro-1H-indol-3-yl)methanone], the IC50 is 0.0376 µM. As to `C[C@H]1c2nn(C)c(-c3cc(F)c(F)c(F)c3)c2CCN1C(=O)c1c[nH]c2c(F)cccc12` [Example 359, [(7S)-2,7-Dimethyl-3-(3,4,5-trifluorophenyl)-5,7-dihydro-4H-pyrazolo[3,4-c]pyridin-6-yl]-(7-fluoro-1H-indol-3-yl)methanone], it took 0.031 µM to reach half-maximal inhibition (IC50).

The compound `Cc1ccc2c(C(=O)N3CCc4c(nn(C)c4-c4cc(F)c(F)c(F)c4)[C@@H]3C)c[nH]c2c1` [Example 360, [(7S)-2,7-Dimethyl-3-(3,4,5-trifluorophenyl)-5,7-dihydro-4H-pyrazolo[3,4-c]pyridin-6-yl]-(6-methyl-1H-indol-3-yl)methanone] returned an IC50 of 0.0468 µM. As for `C[C@H]1c2nn(C)c(-c3cc(F)c(F)c(F)c3)c2CCN1C(=O)c1n[nH]c2ccccc12` [Example 361, [(7S)-2,7-Dimethyl-3-(3,4,5-trifluorophenyl)-5,7-dihydro-4H-pyrazolo[3,4-c]pyridin-6-yl]-(1H-indazol-3-yl)methanone], inhibition was half-maximal at 0.0146 µM (IC50). With `C[C@H]1c2nn(C)c(-c3cc(F)c(F)c(F)c3)c2CCN1C(=O)c1n[nH]c2cccc(F)c12` [Example 362, [(7S)-2,7-Dimethyl-3-(3,4,5-trifluorophenyl)-5,7-dihydro-4H-pyrazolo[3,4-c]pyridin-6-yl]-(4-fluoro-1H-indazol-3-yl)methanone], 0.00274 µM corresponded to half-maximal inhibition (IC50). Under `C[C@H]1c2nn(C)c(-c3cc(F)c(F)c(F)c3)c2CCN1C(=O)c1n[nH]c2cc(F)ccc12` [Example 363, [(7S)-2,7-Dimethyl-3-(3,4,5-trifluorophenyl)-5,7-dihydro-4H-pyrazolo[3,4-c]pyridin-6-yl]-(6-fluoro-1H-indazol-3-yl)methanone] stands 0.0441 µM; under `C[C@H]1c2nn(C)c(-c3cc(F)c(F)c(F)c3)c2CCN1C(=O)c1n[nH]c2ccc(F)cc12` [Example 364, [(7S)-2,7-Dimethyl-3-(3,4,5-trifluorophenyl)-5,7-dihydro-4H-pyrazolo[3,4-c]pyridin-6-yl]-(5-fluoro-1H-indazol-3-yl)methanone], 0.0203 µM. Then `C[C@H]1c2nn(C)c(-c3cc(F)c(F)c(F)c3)c2CCN1C(=O)c1cccc2c1ncn2C` [Example 366, [(7S)-2,7-Dimethyl-3-(3,4,5-trifluorophenyl)-5,7-dihydro-4H-pyrazolo[3,4-c]pyridin-6-yl]-(1-methylbenzimidazol-4-yl)methanone], with 0.0519 µM; and `C[C@H]1c2nn(C)c(-c3cc(F)c(F)c(F)c3)c2CCN1C(=O)c1cccc2[nH]nnc12` [Example 367, 1H-Benzotriazol-4-yl-[(7S)-2,7-dimethyl-3-(3,4,5-trifluorophenyl)-5,7-dihydro-4H-pyrazolo[3,4-c]pyridin-6-yl]methanone], with 0.658 µM; and `C[C@H]1c2nn(C)c(-c3cc(F)c(F)c(F)c3)c2CCN1C(=O)c1cnc2[nH]ccc2c1` [Example 368, [(7S)-2,7-Dimethyl-3-(3,4,5-trifluorophenyl)-5,7-dihydro-4H-pyrazolo[3,4-c]pyridin-6-yl]-(1H-pyrrolo[2,3-b]pyridin-5-yl)methanone], with 0.00936 µM. As for `C[C@H]1c2nn(C)c(-c3cc(F)c(F)c(F)c3)c2CCN1C(=O)c1c(F)cnc2[nH]ccc12` [Example 369, [(7S)-2,7-Dimethyl-3-(3,4,5-trifluorophenyl)-5,7-dihydro-4H-pyrazolo[3,4-c]pyridin-6-yl]-(5-fluoro-1H-pyrrolo[2,3-b]pyridin-4-yl)methanone], inhibition was half-maximal at 0.00188 µM (IC50).

In turn, `C[C@H]1c2nn(C)c(-c3cc(F)c(F)c(F)c3)c2CCN1C(=O)c1c(F)cnc2c1ccn2C` [Example 370, [(7S)-2,7-Dimethyl-3-(3,4,5-trifluorophenyl)-5,7-dihydro-4H-pyrazolo[3,4-c]pyridin-6-yl]-(5-fluoro-1-methyl-pyrrolo[2,3-b]pyridin-4-yl)methanone] returned an IC50 of 0.0003 µM.
